Where two headings read alike, the source gives them in different places. Starred links: 1 amine or outer side, 2 acyl side, 3 side chain; linkers in the order of their positions; H or OH if unused. Positions of bridges follow the written chain, without caps; N, C: chain ends. Non-standard residues stand in square brackets, D forms with d. Residues, ends and D or L forms follow the SMILES beside them. Triazole bridges read from a SMILES are 1,4-linked. *: point of attachment. DOTA = O=C(O)CN1CCN(CC(=O)O)CCN(CC(=O)*)CCN(CC(=O)O)CC1; Pteroyl = Nc1nc2ncc(CNc3ccc(C(=O)*)cc3)nc2c(=O)[nH]1; Biotin = O=C1N[C@H]2[C@H](CS[C@H]2CCCCC(=O)*)N1; PEG10 = NCCOCCOCCOCCOCCOCCOCCOCCOCCOCCOCCC(=O)O; Lys(N3) = [N-]=[N+]=NCCCC[C@H](N)C(=O)O; γGlu = O=C(O)[C@H](CCC(=O)[*:2])N[*:1]; Pra = C#CC[C@H](N)C(=O)O
What was measured:
[1] = target: T1, FOLR1 (Homo sapiens, UniProt P15328); assay: ELISA assay of FOLR1 binding
From the text: FIG. 5 is a diagram of ELISA assay of FOLR1 binding of heterobiligands.

[2] = target: mouse recombinant FOLR1 (rMuFOLR1) (Mus musculus, UniProt P35846); assay: ELISA cross reactivity with mouse recombinant FOLR1; type: binding; conditions: cross reactivity experiment
From the text: Further evaluation of the folate-hshta (SEQ ID NO:6) Nterm heterobiligand depended on cross reactivity with mouse recombinant FOLR1 (rMuFOLR1). The heterobiligand binds to both species' variants of FOLR1 with high affinity. This observation was expected given the high homology between the two variants (approximately 92%).

[3] = system: OVCAR3 FOLR1+ cells (PC-3 FOLR1− cells as negative line); assay: Flow cytometry binding to FOLR1 (+) and FOLR1 (−) cell lines; type: cell-based, human; conditions: OVCAR3 vs PC-3, flow cytometry
Description: Both the kyeet (SEQ ID NO:9) and hshta (SEQ ID NO:6)-derived biligands were tested by flow cytometry for binding to FOLR1 (+) and FOLR1 (−) cell lines (FIGS. 6 and 7). The human ovarian adenocarcinoma-derived cell line OVCAR3 has robust FOLR1 expression and was selected as the FOLR1 (+) cell line. The human prostate adenocarcinoma-derived cell line PC-3 was selected as a FOLR1 (−) cell line.

[4] = target: T1, FOLR1; assay: Folic acid competition ELISA; type: binding
Description: A competition experiment was conducted to further understand the binding kinetics of the lead heterobiligand (folate-hshta (SEQ ID NO:6) Nterm heterobiligand).

[5] = system: OVCAR3 cells; assay: Competition at the cellular level with exogenous folic acid (flow cytometry); type: cell-based, human
From the text: Competition at the cellular level was also probed.

[6] = system: OVCAR3 cells; assay: Cell penetration / internalization assays (acid wash flow cytometry, fluorescence microscopy); type: cell-based, human
Description: FIG. 10 is a diagram of an assay for assessing cell internalization FOLR1 heterobiligands.
The folate-hshta (SEQ ID NO:6) Nterm heterobiligand was also evaluated in cell penetration imaging assays (FIG. 10). OVCAR3 and PC-3 cells were incubated with the test article at 37° C. for 1 hour. Flow cytometry analysis of the resulting treated cells indicated strong binding to FOLR1 (+) cells. To understand the proportion bound to the surface but not internalized, the cells were briefly washed with acid to liberate the non-internalized peptide.
To further understand intracellular trafficking of the Nterm heterobiligand, these dye-labeled compounds were imaged by fluorescence microscopy. The cells were counterstained with BioTracker 490, which stains membranes, and Rab5a+, an endosomal stain. […] Low levels of DyLight650 was detected within PC-3 (FOLR1−) cells. Taken together, internalization of the heterobiligand appears to be receptor driven and selective for FOLR1 (+) cells.

[7] = human plasma
Description: (§1) Plasma was thawed in a 37° C. water bath. Residual clots were removed via centrifugation at 4000 rpm for 5 minutes. The pH of the plasma was adjusted to 7.4 if required. Test articles were diluted to 100 μM by diluting a 1 mM working solution (in DMSO) with 45% methanol in water. To 98 μL of plasma was added 2 μL of the 100 μM solution, resulting in 2 μM final concentration of the test article. Samples were incubated at 37° C. in a water bath. At the indicated time points (0, 10, 30, 60, 120 minutes) 100 μL of 4% H3PO4 was added followed by 800 μL of stop solution (200 ng/mL tolbutamide and 200 ng/mL labetalol in 100% acetonitrile). The samples were centrifuged and the plasma protein-free supernatant (100 μL) was subjected to LC-MS/MS analysis.

[8] = human plasma; remark: listed apart in the source
Description: as §1

[9] = mouse
Description: as §1

T1 sequence (P15328 25-234): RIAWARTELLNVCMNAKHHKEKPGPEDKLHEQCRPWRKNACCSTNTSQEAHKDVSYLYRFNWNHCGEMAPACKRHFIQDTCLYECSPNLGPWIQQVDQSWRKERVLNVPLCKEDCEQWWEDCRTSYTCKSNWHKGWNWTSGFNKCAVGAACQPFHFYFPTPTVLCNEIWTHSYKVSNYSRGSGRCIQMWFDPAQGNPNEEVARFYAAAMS
Sequence of mouse recombinant FOLR1 (rMuFOLR1) (P35846 25-232): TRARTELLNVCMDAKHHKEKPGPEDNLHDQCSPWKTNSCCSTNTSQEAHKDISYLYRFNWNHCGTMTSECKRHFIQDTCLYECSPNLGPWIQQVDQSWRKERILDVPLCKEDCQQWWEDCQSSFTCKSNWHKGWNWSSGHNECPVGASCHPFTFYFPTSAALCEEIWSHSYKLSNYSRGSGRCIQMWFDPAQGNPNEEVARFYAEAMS

For `C[C@H](O)[C@H]1NC(=O)[C@@H](Cc2c[nH]cn2)NC(=O)[C@@H](CO)NC(=O)[C@@H](Cc2c[nH]cn2)NC(=O)[C@@H](NC(=O)CC[C@H](NC(=O)c2ccc(NCc3cnc4nc(N)[nH]c(=O)c4n3)cc2)C(=O)O)Cc2cn(nn2)CCCC[C@@H](C(=O)NCCOCCOCCOCCOCCOCCOCCOCCOCCOCCOCCC(=O)NCCOCCOCCOCCOCCOCCOCCOCCOCCOCCOCCC(=O)N[C@@H](CCCCNC(=O)CCCC[C@@H]2SC[C@@H]3NC(=O)N[C@@H]32)C(N)=O)NC(=O)[C@@H](C)NC1=O` [Folate-hshta Nterm, Folate-hshta-PEG10-PEG10-K(Biotin)] ({Pteroyl-γGlu}-[Pra][dH][dS][dH][dT][dA][Lys(N3)][PEG10][PEG10]K(Biotin)-NH2; triazole 1-7), the “greater affinity than folate itself” value ([1]; ELISA) was about 30 fold, the EC50 ([1]; biotin-labeled constructs with MPBA or DOTA tag, read-out: EC50) was 0.065 nM and the EC50 ([1]; cross reactivity experiment, read-out: Ec50, Human FOLR1) was 0.35 nM. For the same compound, the EC50 [2] was 0.33 nM, the “binding selectivity for FOLR1 (+) cells over FOLR1 (−) cells” value [3] was “high selectivity” and the “binding affinity of the heterobiligand with folic acid doped in” value ([4]; folic acid from 0 to 500 nM) was “virtually unchanged”. The “binding of the heterobiligand with folic acid doped in” value ([4]; folic acid greater than 500 nM) was “partially compete away”, the “percentage of OVCAR3 cells binding” value ([5]; 0.1 μg/mL folate) was 57% and the “percentage of OVCAR3 cells binding” value ([5]; no folate) was 76.6%. The “percentage of positively stained cells” value ([6]; OVCAR3, 37° C. 1 hour, before acid treatment) was 73.4% and the “percentage of positively stained cells” value ([6]; OVCAR3, following acid treatment) was 54.2%.
In the case of `C[C@H](O)[C@H]1NC(=O)[C@@H](Cc2cnc[nH]2)NC(=O)[C@@H](CO)NC(=O)[C@@H](Cc2cnc[nH]2)NC(=O)[C@@H](NC(=O)CC[C@H](NC(=O)c2ccc(NCc3cnc4nc(N)[nH]c(=O)c4n3)cc2)C(=O)O)Cc2cn(nn2)CCCC[C@@H](C(=O)NCC(=O)N[C@@H](Cc2ccccc2)C(=O)N[C@@H](CCCCNC(=O)CN2CCN(CC(=O)O)CCN(CC(=O)O)CCN(CC(=O)O)CC2)C(=O)O)NC(=O)[C@@H](C)NC1=O` [compound 7327, folate-hshta-Gly-Phe-Lys(DOTA)] ({Pteroyl-γGlu}-[Pra][dH][dS][dH][dT][dA][Lys(N3)]GFK(DOTA)-OH; triazole 1-7), the half-life [7] is reported as over 115 h, the “Plasma Stability (t 1/2), Hu” value [8] is reported as “Hu: >6937.7 min” and the “Plasma Stability (t 1/2), Mu” value [9] is reported as “Mu: >6937.7 min”.

From patent publication US11766414B2, “Compositions, delivery systems, and methods useful in tumor therapy” (Indi Molecular, Inc., priority 2020, dated 2023)
